PubChem BioAssay (NCI)
Several values for one entry are separate records, joined by “and”; a condition that tells them apart may be missing. Equal values may be shown once.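 Compound exposure: 48 hours, 5 concentrations, 96-well plates. GI50 = concentration required for 50% inhibition of growth. TGI: total growth inhibition.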

Tests used:
Assay in all cases: growth of human tumour cells (NCI), 48 h
NCI-H23 lung = system: NCI-H23 lung
BT-549 breast = system: BT-549 breast
786-0 renal = system: 786-0 renal
TK-10 renal = system: TK-10 renal
HT29 colon = system: HT29 colon
OVCAR-8 ovarian = system: OVCAR-8 ovarian
HS 578T breast = system: HS 578T breast
NCI-H460 lung = system: NCI-H460 lung

SMILES	GI50 (NCI-H23 lung) [µM]	TGI (NCI-H23 lung) [µM]	GI50 (BT-549 breast) [µM]	TGI (BT-549 breast) [µM]	GI50 (786-0 renal) [µM]	TGI (786-0 renal) [µM]	GI50 (TK-10 renal)	TGI (TK-10 renal) [µM]	GI50 (HT29 colon) [µM]	TGI (HT29 colon) [µM]	GI50 (OVCAR-8 ovarian) [µM]	TGI (OVCAR-8 ovarian) [µM]	GI50 (HS 578T breast) [µM]	TGI (HS 578T breast) [µM]	GI50 (NCI-H460 lung) [µM]	TGI (NCI-H460 lung) [µM]
C#Cc1c(C(N)=O)ncn1C1OC(COP(=O)(OCc2ccc([N+](=O)[O-])o2)N(C)CCCCCl)C(O)C1O (stereo not given)	5.99	73.6	37.8	> 100	36.3	> 100	43.1 µM	> 100	13.3	> 100	9.91	> 100	> 100	> 100	34.1	> 100
CC(=O)O/N=C1/C(c2c(O)[nH]c3cc(Br)ccc23)=Nc2ccccc21	1.63	3.62	1.28	3.5	1.92	8.06	2.09 µM	5.32	1.84	3.65	1.59	4.53	0.0698	1.79	1.24	3.33
NS(=O)(=O)c1cccc(N=Cc2c(O)[nH]c3ccccc23)c1	> 25	> 25	> 25	> 25	> 25	> 25	> 17.7 µM	> 25	> 25	> 25	> 25	> 25	> 25	> 25	> 25	> 25
Cc1cc(Cc2cc(C)cc(C(C)(C)C)c2O)c(O)c(C(C)(C)C)c1	4.23	16.3	11	23.9	11	23	8.22 µM	21.3	4.58	15.6	5.17	16.4	11.2	29.2	3.64	12
COc1cccc(/C=C/c2cnc3ccccc3n2)c1OC	–	> 100	–	53.1	–	> 100	–	> 100	–	98.1	–	> 100	–	68.5	–	> 100
N#CCc1ncc(-c2ccc(C(F)(F)F)cc2)c(NC2CCCCCC2)n1	> 10	> 10	> 10	> 10	> 10	> 10	> 10 µM	> 10	> 10	> 10	> 10	> 10	> 10	> 10	> 10	> 10
C=CCC1(O)c2cccc(NCCO)c2C(=O)c2c(NCCO)cccc21	> 100	> 100	> 100	> 100	> 100	> 100	> 100 µM	> 100	> 100	> 100	> 100	> 100	> 100	> 100	> 100	> 100
O=C(O)c1cc2cc(OCc3ccccc3)c(OCc3ccccc3)cc2[nH]1	17.2	38.1	18.5	35.6	22.7	48.4	24 µM	70.6	29.5	59.6	26.9	95.9	22	64.5	17.8	33.4
c1cn2cc(-c3ccc4cn[nH]c4c3)nc(Nc3ccc(N4CCOCC4)cc3)c2n1	15.2	55	14.5	48.1	14.9	32	17.3 µM	37.8	9.01	37	4.87	21.8	11.1	63.8	7.59	25.4
C=C1C(=O)O[C@H]2[C@H]1CC/C(COC(=O)NCCc1c[nH]c3ccc(OC)cc13)=C\CC[C@@]1(C)O[C@@H]21	2.25	5.84	1.4	3.13	1.46	3.47	1.61 µM	3.11	1.58	3.09	1.97	5.23	6.42	36.9	6.49	25.2
O=c1[nH]cnc2[nH]ncc12	227	> 1870	578	> 5000	400	> 5000	> 94.6 µM and 258 µM	> 5000	842	> 5000	214	> 5000	2540	> 5000	1510	> 5000
COc1ccc(-n2c3c(c4c(CN5CCOCC5)c(O)ccc42)CCc2ccccc2C3=O)cc1	24.9	> 100	24.2	> 100	75.8	> 100	> 100 µM	> 100	–	0.0934	64.4	> 100	> 100	> 100	> 100	> 100
c1ccc(-n2nnnc2-c2cccc3ccccc23)cc1	1.28	> 100	0.755	> 61.2	2.01	53.2	1.45 µM	> 100	0.357	> 20.3	1.48	> 100	1.36	> 100	0.442	> 42.4
COc1ccc(C(=O)c2cc3c(OC)c(OC)c(OC)cc3[nH]2)cc1	6.25	> 100	8.51	> 100	11.9	> 100	39.6 µM	> 100	4	> 100	33.7	> 100	4.25	> 100	3.26	> 100
CO[C@@H]1CC(=O)C2(CC(=O)O[C@@H]2/C=C(\C)CCC=C(C)C)C[C@@H]1O (stereo not given in full)	0.358	1.14	0.492	2.34	0.761	1.58	1.26 µM	3.35	1.35	> 50	1.32	> 10.5	4.74	> 50	0.744	–
